In patent publication EP2002838A1, “Use of aryl and hetaryl amide derivatives as modulators of an EP2 receptor” (Bayer Schering Pharma AG, priority 2007, dated 2008):

What was measured:
Kumulus-Eizell Komplexe = assay: Cumulus expansion test in vitro; assay type: cell-based, Mäuse; settings: competition with PGE2
Description: In immaturen weiblichen Mäusen (Stamm : CD1 (ICR) von Charles River) wird in einem Alter von 14-18 Tagen die Follikulogenese durch eine einmalige Gabe (intraperitoneal) von 10 1.E. PMSG (Pregnant Mare Serum Gonadotropine; Sigma G-4877, Lot 68H0909) induziert. 47 - 50 Stunden nach der Injektion werden die Ovarien entnommen und die Kumulus-Eizell Komplexe entnommen. Der Kumulus Komplex ist in diesem Stadium noch nicht expandiert. Die Kumulus-Eizell Komplexe werden nun für 20 - 24 Stunden mit Prostaglandin E2 (PGE2) (0,3 µM), Vehikel Kontrolle (Ethanol) oder Testsubstanzen inkubiert. Medium: alpha- MEM Medium mit 0,1 mM IBMX, Pyruvate (0,23 mM) Glutamine (2 mM), Pen/Strep 100 IU/ml Pen. und 100 µg/ml Strep.) und HSA (8 mg/ml)). Danach wird die Kumulus Expansion durch die Einteilung in vier Stadien (nach Vanderhyden et al. Dev Biol. 1990 Aug;140(2):307-317) festgestellt. Tabelle 1: Beispiel für die biologische Wirksamkeit der erfindungsgemäßen Verbindungen (gemessen mittels cAMP Antagonismustest): […]

[1] = target: T1, EP2-Subtyp des humanen PGE2-Rezeptors (Homo sapiens, UniProt P43116); assay: cAMP antagonism test (cellular, HTRF cAMP detection, PGE2 stimulation); assay type: cell-based; settings: cAMP Antagonismustest; in presence of agonist PGE2; read-out: Antagonismus [IC50
T1 construct: host or cells: cells in a culture plate
T1 sequence (P43116 whole entry): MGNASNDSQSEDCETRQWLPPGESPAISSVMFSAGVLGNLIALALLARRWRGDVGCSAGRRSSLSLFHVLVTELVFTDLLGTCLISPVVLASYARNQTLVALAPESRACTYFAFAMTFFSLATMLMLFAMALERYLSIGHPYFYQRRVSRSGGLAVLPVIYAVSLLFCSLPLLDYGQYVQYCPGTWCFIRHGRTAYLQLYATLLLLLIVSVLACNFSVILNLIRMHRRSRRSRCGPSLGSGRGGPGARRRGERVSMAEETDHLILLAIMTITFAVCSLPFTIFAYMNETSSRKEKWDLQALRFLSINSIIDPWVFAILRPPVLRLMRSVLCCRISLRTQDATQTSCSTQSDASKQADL
Description: Die Bindung von PGE2 an den EP2-Subtyp des humanen PGE2-Rezeptors induziert die Aktivierung membranständiger Adenylatzyklasen und führt zur Bildung von cAMP. In Gegenwart des Phosphodiesteraseinhibitors IBMX wird das durch diese Stimulation akkumulierte und mittels Zell-Lyse freigesetzte cAMP in einem kompetitiven Nachweisverfahren eingesetzt. In diesem Test konkurriert das cAMP im Lysat mit cAMP-XL665 um die Bindung eines Eu-Kryptat markierten Anti-cAMP Antikörpers. Dabei entsteht in Abwesenheit von zellulärem cAMP ein maximales Signal, welches auf der Kopplung dieses Antikörpers an das cAMP-XL665 Molekül beruht. Dadurch entsteht nach Anregung bei 337 nm ein auf FRET (fluorescence resonance energy transfer) basierendes, langanhaltendes Emissionssignal bei 665 nm (und bei […]). Beide Signale werden in einem geeigneten Messgerät zeitlich versetzt, d.h. nach Abklingen der Hintergrundsfluoreszenz gemessen. Jegliche Erhöhung des durch Prostglandin-E2-Gabe bedingten niedrigen FRET-Signals (gemessen als Well-Ratio-Veränderung = Emission665nm/Emission620nm * 10000) zeigt die Wirkung von Antagonisten.
Die in einer Testplatte und 30 % DMSO vorgelegten Substanzlösungen (0.75 µl) werden in 16 µl einer KRSB+IBMX-Stimulationslösung gelöst (1 X Krebs-Ringer Bicarbonate Buffer; Sigma-Aldrich # K-4002; inklusive 750 µM 3-Isobutyl-1-methylxanthine Sigma-Aldrich # I-7018), anschließend werden 15 µl davon in eine medienfreie Zellkulturplatte überführt, die kurz zuvor mit KRSB gewaschen worden war.
Nach einer 30-minütigen Vorinkubation bei Raumtemperatur (RT) werden 5 µl einer 4xPGE2 Lösung (11 nM) zugegeben und in Gegenwart des Agonisten für weitere 60 min bei RT inkubiert (Volumen: - 20 µl), bevor die Reaktion anschließend durch Zugabe von 5 µl Lysispuffer gestoppt und für weitere 20 min bei RT inkubiert wird (Volumen: - 25 µl). Das Zell-Lysat wird anschließend in eine Messplatte überführt und entsprechend den Herstellerangaben (cyclic AMP kit Cisbio International # 62AMPPEC) gemessen.

[2] = target: T1, EP2-Subtyp des humanen PGE2-Rezeptors; assay: cAMP agonism test (cellular, HTRF cAMP detection, without PGE2); assay type: cell-based

SMILES | IC50 [1] | further results
Cc1[nH]c2c(F)ccc(C)c2c1CCNC(=O)c1ccc(-c2csnn2)cc1 [Beispiel 21, N-[2-(7-Fluor-2,4-dimethyl-1H-indol-3-yl)-ethyl]-4-[1,2,3]thiadiazol-4-yl-benzamid] | – | Unterdrückung der Kumulus Expansion (Kumulus-Eizell Komplexe; concentration 10µM): 50%
Cc1[nH]c2c(F)ccc(C)c2c1CCNC(=O)c1ccc(-n2cccc2)cc1 [Beispiel 13, N-[2-(7-Fluor-2,4-dimethyl-1H-indol-3-yl)-ethyl]-4-pyrrol-1-yl-benzamid] | 960 nM | –
Cc1[nH]c2c(F)ccc(C)c2c1CCNC(=O)c1cccc(-c2cc[nH]n2)c1 [Beispiel 15, N-[2-(7-Fluor-2,4-dimethyl-1H-indol-3-yl)-ethyl]-3-(1 H-pyrazol-3-yl)-benzamid] | 1000 nM | Inhibition im zellulären Agonismustest [2]: keine Inhibition
CC(C)Oc1ccc2c(=O)c3cc(C(=O)O)ccc3oc2c1 [AH 6809, reference compound] | – | Unterdrückung der Kumulus Expansion (Kumulus-Eizell Komplexe; concentration 100 - 200 µM): ca. 30%
Cc1[nH]c2c(F)ccc(C)c2c1CCNC(=O)c1cccc(-c2cccnc2)c1 [Beispiel 20, N-[2-(7-Fluor-2,4-dimethyl-1H-indol-3-yl)-ethyl]-3-pyridin-3-yl-benzamid] | 1900 nM | –
